Test results taken from publication PMC6921279 (Frontiers in Endocrinology, 2019).

Experiments:
[1] = test system: CRF1R-mediated ERK1/2 phosphorylation; test: Modulation of CRF-stimulated ERK1/2 phosphorylation in COS-7 cells expressing HA-CRF1R; type: cell-based; conditions: wortmannin (0–100 nM), 30 min pretreatment; 100 nM CRF, 5 min
Method in brief: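 Lysates were immunoblotted for phospho-ERK1/2 Thr202/Tyr204. Phosphorylation was quantified by densitometry as the mean of three to five independent experiments.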

Src = test: CRF-induced Src phosphorylation at Tyr416 in COS-7 cells expressing HA-CRF1R; type: cell-based; conditions: 100 nM wortmannin, 30 min pretreatment; 100 nM CRF, 5 min
Protocol: COS-7 cells (from the American Type Culture Collection) were cultured at 37°C in a humidified atmosphere of 95% air, 5% CO2, in DMEM supplemented with 10% FBS, 100 μg/ml streptomycin, and 100 units/ml penicillin (COS-7 growth medium). Transient transfections were performed using LipofectAMINE (Life Technologies: Gaithersburg, MD) as described previously ([27]). Cells were seeded at 8 × 10^5 cells/10-cm dish in COS-7 medium and cultured for 3 days before transfection. COS-7 cells were transfected in 5 ml/dish OptiMEM containing 10 μg/ml LipofectAMINE with empty vector, pcDNA3 encoding the HA-CRF1R or the HA-CRF1R-Δ386 mutant. […] After replacing the transfection medium with fresh growth medium, transfected COS-7 cells were cultured for 1 day. […]
The protocols for measuring total and phosphorylated ERK1/2, c-Src, PYK2, Akt, and EGFR have been previously published ([28], [29]). […] The labeled bands were quantified using the Quantity One 4.6.3 software program (Bio-Rad).
Figure 5 Role of Src tyrosine kinase in CRF-stimulated ERK1/2 phosphorylation. […] Total cell lysates were separated by SDS-PAGE and analyzed by immunoblotting with anti-p-Src Tyr^416 (A,B) or anti-p-ERK1/2 Thr^202/Tyr^204 (C–E), as described in Materials and Methods. Src, PYK2, and ERK1/2 phosphorylation were quantitated by densitometry, and mean values were plotted from three to five independent experiments. […]

[2] = test system: CRF1R-mediated Akt phosphorylation; test: CRF-induced Akt phosphorylation at Ser473 in COS-7 cells expressing HA-CRF1R; type: cell-based, human; conditions: wortmannin 100 nM, 30 min pretreatment; 100 nM CRF, 5 min
Protocol: Plasmid pRK5 encoding the carboxyl terminus of βARK that contains its βγ-binding domain (ct-βARK) was kindly provided by Dr. W. Koch (Center for Translational Medicine, Temple University, Philadelphia, PA), which is a scavenger for G protein βγ subunits ([25]). […] Plasmid pUSEamp encoding dominant-negative Akt-K179M (dn-Akt) was from Upstate Biotechnology (Lake Placid, NY).
COS-7 cells (from the American Type Culture Collection) were cultured at 37°C in a humidified atmosphere of 95% air, 5% CO2, in DMEM supplemented with 10% FBS, 100 μg/ml streptomycin, and 100 units/ml penicillin (COS-7 growth medium). Transient transfections were performed using LipofectAMINE (Life Technologies: Gaithersburg, MD) as described previously ([27]). Cells were seeded at 8 × 10^5 cells/10-cm dish in COS-7 medium and cultured for 3 days before transfection. COS-7 cells were transfected in 5 ml/dish OptiMEM containing 10 μg/ml LipofectAMINE with empty vector, pcDNA3 encoding the HA-CRF1R or the HA-CRF1R-Δ386 mutant. […] After replacing the transfection medium with fresh growth medium, transfected COS-7 cells were cultured for 1 day. Subsequently, cells were re-seeded in 6-well plates and cultured for an additional day prior to the experiment.
The protocols for measuring total and phosphorylated ERK1/2, c-Src, PYK2, Akt, and EGFR have been previously published ([28], [29]). After cells were cultured to 60–70% confluence, they were serum-deprived for 24 h. On the day of the experiment, cells were treated with the indicated ligands and inhibitors. […] After treatment, cells were placed on ice, the media was aspirated, and the cells were washed twice with ice-cold PBS and lysed in 100 μl of Laemmli sample buffer 1X. The lysates were briefly sonicated, heated at 95°C for 5 min, and centrifuged for 5 min at 14,000 rpm. Resulting supernatants were loaded in separate lanes of a 10% SDS-PAGE gels and electrophoresed. Next, Western transfer on to PDVF membranes was completed. The Western blots were then probed with specific antibodies targeting phosphorylated and non-phosphorylated forms of ERK1/2, c-Src, PYK2, Akt, and EGFR for primary immunodetection. […] The labeled bands were quantified using the Quantity One 4.6.3 software program (Bio-Rad).
Figure 7 CRF mediates Akt activation. […] Total cell lysates were separated by SDS-PAGE and analyzed by immunoblotting with anti-p-Akt Ser^473, as described in Materials and Methods. Akt phosphorylation was quantitated by densitometry, and mean values were plotted from three to five independent experiments. […]

COC[C@H]1OC(=O)c2coc3c2[C@@]1(C)C1=C(C3=O)[C@@H]2CCC(=O)[C@@]2(C)C[C@H]1OC(C)=O [wortmannin]
effect on CRF-stimulated ERK1/2 phosphorylation [1]: abolished CRF-stimulated ERK1/2 phosphorylation | effect on CRF-induced Src Tyr416 phosphorylation (Src): did not alter CRF-induced phosphorylation of Src at Tyr^416 | effect on CRF1R-mediated Akt signaling activation [2]: abolished CRF1R-mediated Akt signaling activation
